Test results: ChEMBL document CHEMBL1909046, “DrugMatrix in vitro pharmacology data”

Experiments:
[1] = target: 5-hydroxytryptamine receptor 2B (Homo sapiens, UniProt P41595); type: cell membranes, CHO-K1, Membrane; conditions: for Ki: read-out: Ki; for all read-outs here: in other assays of this panel Not Active means under 50% inhibition at 10 µM
[2] = DRUGMATRIX: Serotonin (5-Hydroxytryptamine) 5-HT3 radioligand binding (ligand: [3H] GR-65630); type: cell membranes, Membrane; conditions: hek293; Not Active = under 50% inhibition at 10 µM
[3] = target: T1, C-C chemokine receptor type 4 (Homo sapiens, UniProt P51679); type: cell membranes, Chem-1, Membrane; conditions: chem-1; note: in other assays of this panel Not Active means under 50% inhibition at 10 µM
T1 sequence (P51679 whole entry): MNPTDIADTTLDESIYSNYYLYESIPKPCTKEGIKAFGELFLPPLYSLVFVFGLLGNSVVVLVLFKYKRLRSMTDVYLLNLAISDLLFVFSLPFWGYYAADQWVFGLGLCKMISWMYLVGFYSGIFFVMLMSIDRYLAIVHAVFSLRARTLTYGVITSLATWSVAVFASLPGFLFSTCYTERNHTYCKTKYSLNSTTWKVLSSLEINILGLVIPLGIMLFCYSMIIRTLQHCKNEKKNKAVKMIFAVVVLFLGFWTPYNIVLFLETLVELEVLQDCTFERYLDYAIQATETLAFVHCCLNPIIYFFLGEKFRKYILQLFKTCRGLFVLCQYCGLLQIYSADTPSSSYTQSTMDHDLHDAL

[4] = target: Sodium-dependent dopamine transporter (Homo sapiens, UniProt Q01959); experiment: DRUGMATRIX: Dopamine Transporter radioligand binding (ligand: [125I] RTI-55); type: cell membranes, CHO-K1, Membrane; conditions: Not Active = under 50% inhibition at 10 µM; for Ki: read-out: Ki
Sequence of Sodium-dependent dopamine transporter (Q01959 whole entry): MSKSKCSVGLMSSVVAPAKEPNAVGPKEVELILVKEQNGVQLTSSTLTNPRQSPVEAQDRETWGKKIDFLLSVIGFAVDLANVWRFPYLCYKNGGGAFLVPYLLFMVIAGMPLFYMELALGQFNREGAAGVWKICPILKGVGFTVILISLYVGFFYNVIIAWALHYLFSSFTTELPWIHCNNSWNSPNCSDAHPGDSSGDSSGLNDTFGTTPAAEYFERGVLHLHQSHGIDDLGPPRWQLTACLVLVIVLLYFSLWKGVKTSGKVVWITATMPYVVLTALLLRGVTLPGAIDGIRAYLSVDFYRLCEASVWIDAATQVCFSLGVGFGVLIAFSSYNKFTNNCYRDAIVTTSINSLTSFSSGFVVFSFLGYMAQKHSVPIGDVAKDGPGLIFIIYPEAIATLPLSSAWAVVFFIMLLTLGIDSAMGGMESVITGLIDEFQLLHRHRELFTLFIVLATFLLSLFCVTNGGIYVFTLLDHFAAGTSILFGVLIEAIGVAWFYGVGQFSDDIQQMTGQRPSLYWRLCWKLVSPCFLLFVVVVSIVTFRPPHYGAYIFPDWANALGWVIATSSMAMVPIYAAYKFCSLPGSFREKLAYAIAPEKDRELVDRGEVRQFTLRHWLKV

[5] = DRUGMATRIX: Glutamate, NMDA, Agonism radioligand binding (ligand: [3H] CGP-39653); type: cell membranes, Rattus norvegicus, Wistar, Cerebral cortex, Membrane; conditions: Not Active = under 50% inhibition at 10 µM
Insulin receptor = Insulin receptor (Rattus norvegicus, UniProt P15127); type: cell membranes, Wistar, Liver, Membrane; note: in other assays of this panel Not Active means under 50% inhibition at 10 µM
Sequence of Insulin receptor (P15127 27-759 limits assumed): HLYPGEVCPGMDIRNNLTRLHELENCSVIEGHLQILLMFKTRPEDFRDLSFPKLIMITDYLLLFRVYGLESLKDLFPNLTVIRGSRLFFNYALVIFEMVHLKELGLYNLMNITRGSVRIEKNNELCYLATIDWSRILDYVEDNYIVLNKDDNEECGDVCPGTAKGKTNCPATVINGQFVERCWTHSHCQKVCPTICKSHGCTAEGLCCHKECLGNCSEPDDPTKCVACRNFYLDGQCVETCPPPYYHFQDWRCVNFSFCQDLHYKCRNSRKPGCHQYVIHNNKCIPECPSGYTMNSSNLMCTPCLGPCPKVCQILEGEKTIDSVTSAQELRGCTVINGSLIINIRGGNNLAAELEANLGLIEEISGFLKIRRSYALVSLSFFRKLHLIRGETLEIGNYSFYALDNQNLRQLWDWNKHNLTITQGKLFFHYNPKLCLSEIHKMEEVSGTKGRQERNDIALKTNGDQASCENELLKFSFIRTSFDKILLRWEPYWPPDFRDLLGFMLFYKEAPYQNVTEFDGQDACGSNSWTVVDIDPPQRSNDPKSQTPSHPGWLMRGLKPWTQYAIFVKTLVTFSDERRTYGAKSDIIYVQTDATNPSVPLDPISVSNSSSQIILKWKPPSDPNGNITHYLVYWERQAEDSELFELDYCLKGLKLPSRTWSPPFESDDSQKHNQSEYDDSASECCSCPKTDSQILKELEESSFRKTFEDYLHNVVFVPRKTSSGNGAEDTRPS
Sequence of Insulin receptor (P15127 764-1383 limits assumed): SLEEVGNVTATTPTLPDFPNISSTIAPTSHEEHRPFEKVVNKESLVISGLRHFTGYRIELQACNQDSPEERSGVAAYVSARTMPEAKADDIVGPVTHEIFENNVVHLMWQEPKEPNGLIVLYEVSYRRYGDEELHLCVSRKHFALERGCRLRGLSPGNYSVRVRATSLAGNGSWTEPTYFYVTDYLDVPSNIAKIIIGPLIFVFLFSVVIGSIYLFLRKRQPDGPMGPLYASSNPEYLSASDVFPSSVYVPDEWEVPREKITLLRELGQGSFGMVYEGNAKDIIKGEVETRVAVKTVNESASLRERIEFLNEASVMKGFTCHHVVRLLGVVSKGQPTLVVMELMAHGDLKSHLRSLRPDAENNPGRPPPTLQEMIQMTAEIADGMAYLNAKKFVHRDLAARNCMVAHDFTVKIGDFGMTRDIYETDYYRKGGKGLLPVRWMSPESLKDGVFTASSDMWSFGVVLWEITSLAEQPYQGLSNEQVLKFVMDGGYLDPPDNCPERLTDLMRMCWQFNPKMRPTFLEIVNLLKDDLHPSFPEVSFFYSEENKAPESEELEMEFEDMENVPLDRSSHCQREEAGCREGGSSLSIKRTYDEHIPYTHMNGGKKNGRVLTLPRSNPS

Cathepsin G = target: T2, Cathepsin G (Homo sapiens, UniProt P08311); experiment: biochemical; type: tissue-based, Neutrophil; conditions: neutrophil;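 note: inhibition of Cathepsin G enzyme activity, tested on an AMC-conjugated peptide substrate; in other assays of this panel Not Active means under 50% inhibition at 10 µM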
T2 sequence (P08311 whole entry): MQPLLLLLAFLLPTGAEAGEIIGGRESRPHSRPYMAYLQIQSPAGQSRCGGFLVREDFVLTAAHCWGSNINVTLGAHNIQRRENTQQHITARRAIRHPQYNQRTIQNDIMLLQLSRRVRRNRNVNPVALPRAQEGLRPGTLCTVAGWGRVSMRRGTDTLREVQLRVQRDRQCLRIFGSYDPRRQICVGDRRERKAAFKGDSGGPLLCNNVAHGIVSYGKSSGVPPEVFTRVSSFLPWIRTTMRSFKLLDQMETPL

[6] = target: Voltage-gated inwardly rectifying potassium channel KCNH2 (Homo sapiens, UniProt Q12809); conditions: hek293; note: in other assays of this panel Not Active means under 50% inhibition at 10 µM
Sequence of Voltage-gated inwardly rectifying potassium channel KCNH2 (Q12809 whole entry): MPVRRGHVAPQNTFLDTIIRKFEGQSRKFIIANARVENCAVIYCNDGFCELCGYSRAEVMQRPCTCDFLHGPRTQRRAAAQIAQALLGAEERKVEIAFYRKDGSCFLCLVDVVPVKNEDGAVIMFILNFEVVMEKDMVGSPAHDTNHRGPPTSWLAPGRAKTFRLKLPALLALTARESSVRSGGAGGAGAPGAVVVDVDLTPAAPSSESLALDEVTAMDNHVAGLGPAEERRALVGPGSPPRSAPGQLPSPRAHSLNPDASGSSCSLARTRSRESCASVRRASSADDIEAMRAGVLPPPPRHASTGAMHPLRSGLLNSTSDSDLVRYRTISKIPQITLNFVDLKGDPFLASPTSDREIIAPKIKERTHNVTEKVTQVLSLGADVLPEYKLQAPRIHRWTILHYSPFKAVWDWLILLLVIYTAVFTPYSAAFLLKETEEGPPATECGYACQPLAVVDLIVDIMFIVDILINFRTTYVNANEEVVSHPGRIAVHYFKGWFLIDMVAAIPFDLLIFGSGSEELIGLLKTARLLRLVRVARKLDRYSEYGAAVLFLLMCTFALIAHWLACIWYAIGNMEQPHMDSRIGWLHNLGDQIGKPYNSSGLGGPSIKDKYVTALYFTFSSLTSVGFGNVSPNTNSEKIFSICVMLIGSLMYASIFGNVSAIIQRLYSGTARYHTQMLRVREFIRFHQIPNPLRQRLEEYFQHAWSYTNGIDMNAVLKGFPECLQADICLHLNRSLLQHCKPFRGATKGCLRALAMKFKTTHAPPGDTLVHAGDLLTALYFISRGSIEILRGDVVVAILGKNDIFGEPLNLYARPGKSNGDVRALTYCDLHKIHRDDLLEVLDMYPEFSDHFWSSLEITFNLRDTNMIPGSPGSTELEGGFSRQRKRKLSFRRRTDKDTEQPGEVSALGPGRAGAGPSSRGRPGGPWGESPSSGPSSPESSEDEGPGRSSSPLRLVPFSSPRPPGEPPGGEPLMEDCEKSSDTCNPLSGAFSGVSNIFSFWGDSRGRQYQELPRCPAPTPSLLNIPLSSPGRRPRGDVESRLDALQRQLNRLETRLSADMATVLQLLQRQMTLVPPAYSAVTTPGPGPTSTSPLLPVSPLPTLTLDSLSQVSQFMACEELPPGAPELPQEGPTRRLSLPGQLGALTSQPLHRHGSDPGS

Sequence of 5-hydroxytryptamine receptor 2B (P41595 whole entry): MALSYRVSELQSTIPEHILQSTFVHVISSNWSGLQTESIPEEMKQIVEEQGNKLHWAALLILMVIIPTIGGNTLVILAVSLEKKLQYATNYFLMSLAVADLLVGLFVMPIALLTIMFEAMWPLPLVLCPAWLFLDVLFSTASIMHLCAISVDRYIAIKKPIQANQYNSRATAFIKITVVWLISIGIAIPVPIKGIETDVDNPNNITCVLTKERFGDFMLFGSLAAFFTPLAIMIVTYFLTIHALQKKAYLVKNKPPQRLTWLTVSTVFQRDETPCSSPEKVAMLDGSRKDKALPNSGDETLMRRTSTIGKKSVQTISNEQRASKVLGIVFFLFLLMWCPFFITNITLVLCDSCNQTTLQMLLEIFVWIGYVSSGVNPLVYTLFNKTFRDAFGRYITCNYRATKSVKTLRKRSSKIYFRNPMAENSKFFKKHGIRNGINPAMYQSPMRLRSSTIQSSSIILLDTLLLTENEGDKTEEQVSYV

SMILES | IC50 ([1]; cho-k1) | IC50 [2] | Ki [2] | IC50 [3] | IC50 ([4]; cho-k1) | IC50 [5] | Ki [5] | IC50 (Insulin receptor) | IC50 (Cathepsin G) | IC50 [6] | Ki [6] | IC50 ([1]; read-out: IC50) [nM] | Ki [1] [nM] | IC50 ([4]; read-out: IC50) [nM] | Ki [4] [nM]
C[C@H]1C[C@H]2[C@@H]3CCC4=CC(=O)C=C[C@]4(C)[C@@]3(F)[C@@H](O)C[C@]2(C)[C@@]1(O)C(=O)CO [BETAMETHASONE] | Not Active | Not Active | Not Active | Not Active | Not Active | Not Active | Not Active | Not Active | Not Active | Not Active | Not Active | – | – | – | –
CC(C)NCC(O)COc1ccc(CC(N)=O)cc1 (configuration not stated) [ATENOLOL] | Not Active | Not Active | Not Active | Not Active | Not Active | Not Active | Not Active | Not Active | Not Active | – | – | – | – | – | –
O=C1c2ccccc2C(=O)C1c1ccccc1 [PHENINDIONE] | Not Active | Not Active | Not Active | Not Active | Not Active | Not Active | Not Active | Not Active | Not Active | Not Active | Not Active | – | – | – | –
CCCCCCNC(=O)n1cc(F)c(=O)[nH]c1=O [CARMOFUR] | Not Active | Not Active | Not Active | Not Active | Not Active | Not Active | Not Active | Not Active | Not Active | Not Active | Not Active | – | – | – | –
O=c1[nH]cnc2c1ncn2[C@H]1CC[C@@H](CO)O1 [DIDANOSINE] | Not Active | Not Active | Not Active | Not Active | Not Active | Not Active | Not Active | Not Active | Not Active | Not Active | Not Active | – | – | – | –
CC(=O)Nc1ccc2c(c1)Cc1ccccc1-2 [2-ACETYLAMINOFLUORENE] | – | Not Active | Not Active | Not Active | Not Active | Not Active | Not Active | Not Active | Not Active | Not Active | Not Active | 3170 | 2020 | – | –
CC(C)(c1ccc(O)cc1)c1ccc(O)cc1 [BISPHENOL A] | Not Active | Not Active | Not Active | Not Active | – | Not Active | Not Active | Not Active | Not Active | Not Active | Not Active | – | – | 19000 | 15100
CO[C@H]1O[C@@H]2O[C@@]3(C)CC[C@H]4[C@H](C)CC[C@@H]([C@H]1C)[C@@]24OO3 | Not Active | Not Active | Not Active | Not Active | Not Active | Not Active | Not Active | Not Active | Not Active | Not Active | Not Active | – | – | – | –
C#C[C@]1(O)CC[C@H]2[C@@H]3CCC4=CC(=O)CC[C@@H]4[C@H]3CC[C@@]21C [NORETHINDRONE] | Not Active | Not Active | Not Active | Not Active | Not Active | Not Active | Not Active | Not Active | Not Active | Not Active | Not Active | – | – | – | –
CN(Cc1cc(Br)cc(Br)c1N)C1CCCCC1 [BROMHEXINE] | Not Active | Not Active | Not Active | Not Active | Not Active | Not Active | Not Active | Not Active | Not Active | Not Active | Not Active | – | – | – | –
CC12CCC(CC1=O)C2(C)C (configuration not stated) [CAMPHOR] | Not Active | Not Active | Not Active | Not Active | Not Active | Not Active | Not Active | Not Active | Not Active | Not Active | Not Active | – | – | – | –
C[C@@H]1[C@H](O)[C@@H](C)/C=C/C=C/C=C/C=C/C=C/C=C/C=C/[C@H](O[C@@H]2O[C@H](C)[C@@H](O)[C@H](N)[C@@H]2O)C[C@@H]2O[C@](O)(C[C@@H](O)C[C@@H](O)[C@H](O)CC[C@@H](O)C[C@@H](O)CC(=O)O[C@H]1C)C[C@H](O)[C@H]2C(=O)O [AMPHOTERICIN B] | Not Active | Not Active | Not Active | Not Active | Not Active | Not Active | Not Active | Not Active | Not Active | Not Active | Not Active | – | – | – | –
Nc1ccc(Cc2ccc(N)cc2)cc1 | Not Active | Not Active | Not Active | Not Active | Not Active | Not Active | Not Active | Not Active | Not Active | Not Active | Not Active | – | – | – | –
CCN(CCO)CCCC(C)Nc1ccnc2cc(Cl)ccc12 (configuration not stated) [HYDROXYCHLOROQUINE] | Not Active | Not Active | Not Active | Not Active | Not Active | Not Active | Not Active | Not Active | Not Active | Not Active | Not Active | – | – | – | –
CC[C@H]1OC(=O)[C@H](C)[C@@H](O[C@H]2C[C@@](C)(OC)[C@@H](O)[C@H](C)O2)[C@H](C)[C@@H](O[C@@H]2O[C@H](C)C[C@H](N(C)C)[C@H]2O)[C@](C)(O)C[C@@H](C)C(=O)[C@H](C)[C@@H](O)[C@]1(C)O [ERYTHROMYCIN] | Not Active | Not Active | Not Active | Not Active | Not Active | Not Active | Not Active | Not Active | Not Active | – | – | – | – | – | –
CCN1C[C@]2(COC)[C@H](O)C[C@H](OC)[C@@]34[C@@H]5C[C@@]6(O)[C@H](OC(=O)c7ccccc7)[C@@H]5[C@@](OC(C)=O)([C@@H]([C@H](OC)[C@H]23)[C@@H]14)[C@@H](O)[C@@H]6OC [ACONITINE] | Not Active | Not Active | Not Active | Not Active | Not Active | Not Active | Not Active | Not Active | Not Active | – | – | – | – | – | –
CCN1CCN(C(=O)N[C@@H](C(=O)N[C@@H]2C(=O)N3[C@@H]2SC(C)(C)[C@@H]3C(=O)O)c2ccccc2)C(=O)C1=O [PIPERACILLIN] | Not Active | Not Active | Not Active | Not Active | Not Active | Not Active | Not Active | Not Active | Not Active | – | – | – | – | – | –
CNC[C@H](O)c1ccc(O)c(O)c1 [EPINEPHRINE] | Not Active | – | – | Not Active | Not Active | – | – | Not Active | Not Active | Not Active | Not Active | – | – | – | –
COc1ccccc1OCCNCC(O)COc1cccc2[nH]c3ccccc3c12 (configuration not stated) [CARVEDILOL] | – | Not Active | Not Active | Not Active | – | Not Active | Not Active | Not Active | Not Active | – | – | 23 | 15 | 845 | 671
COc1ccc(Cl)cc1C(=O)NCCc1ccc(S(=O)(=O)NC(=O)NC2CCCCC2)cc1 [GLYBURIDE] | Not Active | Not Active | Not Active | Not Active | Not Active | Not Active | Not Active | Not Active | Not Active | – | – | – | – | – | –
NC(N)=Nc1nc(CSCCC(N)=NS(N)(=O)=O)cs1 [FAMOTIDINE] | Not Active | Not Active | Not Active | Not Active | Not Active | Not Active | Not Active | Not Active | Not Active | – | – | – | – | – | –
CC(N)Cc1c[nH]c2ccc(OCc3cccs3)cc12 (configuration not stated) [BW-723C86] | – | Not Active | Not Active | Not Active | – | Not Active | Not Active | Not Active | Not Active | Not Active | Not Active | – | – | 2680 | 2130
NS(=O)(=O)c1cc(C(=O)O)c(NCc2ccco2)cc1Cl [FUROSEMIDE] | Not Active | Not Active | Not Active | Not Active | Not Active | Not Active | Not Active | Not Active | Not Active | – | – | – | – | – | –
